Assay [1] deals with T1, Hsp104 (Saccharomyces cerevisiae, UniProt P31539).
T1 construct: made in house; host or cells: E. coli BL21-DE3 RIL
The assay can be described thus: High-throughput Hsp104 ATPase plate assay (malachite green, 384-well). It counts as biochemical, yeast. The note with it: for inhibition at 10 µM: read-out: % Inhibition of Hsp104 ATP hydrolysis. The method, then: ATPase activity was assessed by the release of inorganic phosphate determined using a malachite green phosphate detection kit (Innova Biosciences, Cambridge, United Kingdom). Microtiter plates (384-well) were purchased from PerkinElmer (Waltham, MA). Three libraries were screened: The NIH Clinical Collection (450 small molecules), the Spectrum Collection (2,000 compounds, MicroSource, Gaylordsville, CT) and the HitFinder Collection (14,400 compounds, Maybridge).
We adapted the inorganic phosphate colorimetric assay to fit a 384-well plate format. A Ź-factor between 0.8 and 1 was calculated for the assay. A 2X Hsp104 stock solution was dispensed into each well using a Biotek microflo (Biotek Instruments, Winooski, VT). Compounds were then transferred using a Janus 96/384 Modular Dispensing Tool (PerkinElmer). Finally, a 2X ATP solution was dispensed using the Biotek microflo. Final concentrations of Hsp104 (monomer) and ATP were 0.25 µM and 1 mM respectively. Seeking to avoid the discovery of competitive inhibitors, we designed our high-throughput screen to use a 100-fold excess of ATP with respect to the test compounds (10 µM each). Final buffer conditions were 20 mM HEPES-KOH pH 7.4, 20 mM NaCl and 10 mM MgCl2. The ATPase reaction was allowed to continue for 60 min, at which time the reaction was terminated by addition of the colorimetric reagent. Absorbance was measured at 635 nm on an EnVision Xcite Multilabel plate reader (PerkinElmer). Hits were tested in duplicate. […] Ten of these were subjected to a 6-point titration (40, 13.3, 4.44, 1.45, 0.49 and 0 µM) in the absence or presence of Triton X-100, BSA, or both Triton X-100 and BSA at the specified concentrations. Heat maps were created in Excel for Mac 2011 (Microsoft Corporation) using the Conditional Formatting feature (Color Scales).
We aimed to identify small molecules capable of inhibiting Hsp104. To do so, we employed high-throughput screening using Hsp104 ATPase activity as a proxy for function. To detect changes in Hsp104 ATPase activity, we used a colorimetric assay detecting free inorganic phosphate (Pi) based on the formation of a colored complex between Pi and a dye molecule under acidic conditions, [44]. Pi is produced from the Hsp104-driven hydrolysis of ATP. The colored complex concentration, a surrogate for Pi concentration and ATPase rate, is determined by measuring the absorbance of a sample at 635 nm. We used recombinant Hsp104 purified from E. coli. An Hsp104 mutant with mutations in both NBD1 and NBD2 Walker B sequence motifs (Hsp104^DWB, carrying ATPase ablating mutations E285Q: E687Q) was used as a negative control for ATPase activity. Hsp104^WT activity results in a high A635 (high ATPase), while Hsp104^DWB activity results in a low A635 (low ATPase). We optimized the Pi colorimetric assay to fit a 384-well plate format. We selected the Hsp104 concentration (0.25 µM) on the basis of previous experience in our laboratory. The ATP concentration was selected to be in a 100-fold excess of ATP with respect to the test compounds. […] We screened 16,850 compounds from the NIH Clinical Collection as well as the Spectrum and Maybridge compound libraries. […] For instance, hexachlorophene and tannic acid inhibit Hsp104 ATPase activity by ∼80%, while Merbromin and Sennoside a inhibit by ∼20% ( Table 1 ).

Assay [2] concerns Hsp104. The note with it: cited from earlier work.
Assay [3] addresses T1, Hsp104. The assay can be described thus: Luciferase disaggregation/reactivation assay, Hsp104 with ATP:ATPγS. It counts as biochemical, yeast. The note with it: for Normalized Luciferase Refolding Activity: 90 min 25°C, ATP:ATPγS 1:1, Figure 3A. The method, then:
Luciferase reactivation was performed as described, [37]. To assemble aggregates, firefly luciferase (50 µM) in luciferase refolding buffer (LRB, 25 mM HEPES-KOH, 7.4, 150 mM KAOc, 10 mM MgAOc, 10 mM DTT) with 6 M urea was incubated at 30°C for 20 min. Luciferase was then rapidly diluted 100-fold into LRB, divided into 100 µL aliquots, snap frozen in liquid N2, and stored at −80°C. For reactivation assays, aggregated luciferase (50 nM) was incubated with Hsp104 (1 µM hexamer), plus 2.6 mM ATPγS, 2.6 mM ATP and an ATP regeneration system (1 mM creatine phosphate, 0.25 µM creatine kinase (Roche Applied Science)) for 90 minutes at 25°C. Luciferase assay system was purchased from Promega. Luciferase activity was assessed by luminescence measured on a Safire^2 microplate reader (Tecan, Männedorf, Switzerland). The half maximal inhibitory concentration (IC50) was calculating by fitting luciferase-refolding data at different Suramin concentrations with Prism (GraphPad Software, Inc., La Jolla, CA).

For assay [4], the target named is T2, Hsp104^WT (Saccharomyces cerevisiae, UniProt P31539).
T2 construct: made in house; host or cells: E. coli BL21-DE3 RIL
T2 sequence (P31539 whole entry): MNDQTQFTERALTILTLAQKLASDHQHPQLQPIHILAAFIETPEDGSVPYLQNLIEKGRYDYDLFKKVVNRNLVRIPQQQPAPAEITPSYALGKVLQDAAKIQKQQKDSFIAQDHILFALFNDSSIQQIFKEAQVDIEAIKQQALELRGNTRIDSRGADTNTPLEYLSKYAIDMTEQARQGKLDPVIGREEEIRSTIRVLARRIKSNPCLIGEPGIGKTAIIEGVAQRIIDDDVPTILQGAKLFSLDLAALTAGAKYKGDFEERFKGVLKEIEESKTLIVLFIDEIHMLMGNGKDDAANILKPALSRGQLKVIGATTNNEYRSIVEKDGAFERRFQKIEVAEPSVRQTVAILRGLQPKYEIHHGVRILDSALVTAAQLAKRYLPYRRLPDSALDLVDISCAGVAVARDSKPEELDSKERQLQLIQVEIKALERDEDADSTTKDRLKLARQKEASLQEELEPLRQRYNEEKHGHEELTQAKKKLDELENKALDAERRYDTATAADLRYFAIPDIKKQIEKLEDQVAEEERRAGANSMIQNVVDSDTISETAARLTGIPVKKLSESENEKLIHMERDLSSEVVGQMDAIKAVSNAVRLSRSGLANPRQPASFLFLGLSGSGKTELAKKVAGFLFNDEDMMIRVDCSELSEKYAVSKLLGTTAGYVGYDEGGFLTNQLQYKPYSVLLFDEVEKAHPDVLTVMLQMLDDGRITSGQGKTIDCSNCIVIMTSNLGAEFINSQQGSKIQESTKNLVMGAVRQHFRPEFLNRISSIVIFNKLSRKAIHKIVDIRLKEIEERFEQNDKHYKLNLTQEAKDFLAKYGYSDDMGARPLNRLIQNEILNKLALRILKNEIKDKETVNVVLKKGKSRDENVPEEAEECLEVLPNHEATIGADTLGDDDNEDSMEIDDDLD
The assay can be described thus: Manual ATPase assay, Hsp104^WT. The class given is biochemical, yeast. The note with it: 60 min, ATP 1 mM. The procedure:
Wild-type or mutant Hsp104 (0.25 µM monomer) in ATPase buffer (20 mM HEPES-KOH pH 7.4, 20 mM NaCl and 10 mM MgCl2) was incubated for 60 or 10 min at 25°C in the presence of ATP (1 mM) as noted. ATPase activity was assessed by the release of inorganic phosphate determined by using a malachite green phosphate detection kit (Innova).

The mark [5] stands for this setting: 10 µM compound, Hsp104 0.25 µM monomer, ATP 1 mM, 60 min, mean ±S.D. (n = 2).

The inhibition is the relative decrease from the control value, in per cent.

Where a name gives a salt, the structure may show the parent alone. Read-outs that look alike come from different tables or passages of the source.

T1 sequence (P31539 whole entry): as above

Regarding Chlorophyllide Cu Complex Na Salt, in assay [1] (setting [5]), the “% Inhibition of Hsp104 ATP hydrolysis” value is 33.79±2.18%.
Take `O=C(O)C1=CC(=C(c2ccc(O)c(C(=O)O)c2)c2ccc(O)c(C(=O)O)c2)C=CC1=O` [Aurin tricarboxylic acid]: the inhibition at 10 µM in assay [1] (setting [5]) turned out to be 24.2 ± 1.41%.
On the same count and under the same terms, in the case of `O=C(O[C@@H]1Cc2c(O)cc(O)cc2O[C@@H]1c1cc(O)c(=O)c2c(O)c(O)cc([C@H]3Oc4cc(O)cc(O)c4C[C@H]3O)c2c1)c1cc(O)c(O)c(O)c1` [Theaflavin monogallates] it was 57.2 ± 7.19%; in that of `O=C(Oc1cc(O)cc2c1C[C@@H](OC(=O)c1cc(O)c(O)c(O)c1)[C@@H](c1cc(O)c(O)c(O)c1)O2)c1cc(O)c(O)c(O)c1` [Epigallocatechin 3,5-digallate], 21.9 ± 2.53%.
On to `N.N.O=C([O-])C1(C(=O)[O-])CCC1.[Pt+2]` [Carboplatin], for which, in assay [1] (setting [5]), the “% Inhibition of Hsp104 ATP hydrolysis” value is recorded as 73.75±1.41%.
In the case of `Cc1cc2c(C(C)C)c(O)c(O)c(C=O)c2c(O)c1-c1c(C)cc2c(C(C)C)c(O)c(O)c(C=O)c2c1O` [Gossypol], the inhibition at 10 µM in assay [1] came out at 42.3 ± 4.83%.
As for `CC(=O)O.Cc1cc2c(C(C)C)c(O)c(O)c(C=O)c2c(O)c1-c1c(C)cc2c(C(C)C)c(O)c(O)c(C=O)c2c1O` [Gossypol-acetic acid complex], the “% Inhibition of Hsp104 ATP hydrolysis” value in assay [1] (setting [5]) is given as 47.92±1.30%.
For `Cl.N=C(N)N` [GdmCl, guanidinium hydrochloride], in assay [2] (GdmCl 100 mM), the “Hsp104 ATPase activity remaining” value is “large fraction of Hsp104 ATPase activity remained”. Further, in assay [2], the “Effective concentration for inhibition of Hsp104 activity” value was “effective at millimolar concentrations”. In addition, the “Concentration needed to elicit the same level of inhibition as 100 µM Suramin (complete ablation of luciferase refolding)” value in assay [3] (ATP:ATPγS 1:1) is listed as 5 mM. Also, the “Normalized Luciferase Refolding Activity” value was determined as 0.07 in assay [3] (GdmCl 1 mM), 0.01 in assay [3] (GdmCl 5 mM), 0.01 in assay [3] (GdmCl 10 mM) and 0.01 in assay [3] (GdmCl 20 mM). In addition, the “Effect on luciferase reactivation activity of Hsp104” value in assay [3] (all concentrations of GdmCl tested (1-20 mM)) is listed as “very strongly inhibited the luciferase reactivation activity of Hsp104”. In addition, the “Effect on Hsp104 ATPase activity, manual assay” value in assay [4] (30 mM (highest concentration tested)) is on record as “only very mildly inhibited Hsp104 ATPase activity”.
On to `O=C1C=C2CC3(O)COc4c(ccc(O)c4O)C3=C2C=C1O` (centres unmarked) [Hematein], for which, in assay [1], the inhibition at 10 µM was 45.7 ± 5.95%.
For the molecule Sucralfate Sodium, the “% Inhibition of Hsp104 ATP hydrolysis” value in assay [1] (setting [5]) amounted to 25.67±2.59%.
Turning to `O=C(O)c1cc(O)c2c(c1)[C@H]([C@H]1c3cc(C(=O)O)cc(O)c3C(=O)c3c(O[C@@H]4O[C@H](CO)[C@@H](O)[C@H](O)[C@H]4O)cccc31)c1cccc(O[C@@H]3O[C@H](CO)[C@@H](O)[C@H](O)[C@H]3O)c1C2=O` [Sennoside a], in assay [1] (setting [5]), the “% Inhibition of Hsp104 ATP hydrolysis” value was 19.92±7.07% and the inhibition at 10 µM was about 20%.
Turning to `C=C1c2cccc(O)c2C(=O)C2=C(O)[C@]3(O)C(=O)C(C(N)=O)=C(O)[C@@H](N(C)C)[C@@H]3[C@@H](O)[C@H]12` [Methacycline hydrochloride], the inhibition at 10 µM in assay [1] (setting [5]) came out at 33.3 ± 2.12%.
For the molecule `O=C([O-])c1ccccc1-c1c2cc(Br)c(=O)cc-2oc2[c]([Hg+])c([O-])c(Br)cc12.[Na+].[Na+].[OH-]` [Merbromin], the “% Inhibition of Hsp104 ATP hydrolysis” value in assay [1] (setting [5]) was determined as 21.17±3.54%.
Take `Oc1c(Cl)cc(Cl)c(Cl)c1Cc1c(O)c(Cl)cc(Cl)c1Cl` [Hexachlorophene]: in assay [1] (setting [5]), the “% Inhibition of Hsp104 ATP hydrolysis” value is recorded as 80.21±1.00% and the inhibition at 10 µM is about 80%.
As for Tannic acid, the “% Inhibition of Hsp104 ATP hydrolysis” value in assay [1] (setting [5]) is given as 79.79±0.29%; in assay [1] (10 µM compound, Hsp104 0.25 µM monomer, ATP 1 mM, 60 min, mean ±S.D. (n = 2), listed as tannic acid), about 80%.
For the molecule `N.N.[Cl][Pt][Cl]` [Cisplatin, cis-diamminedichloroplatinum (II)], the “Effect on Hsp104 ATPase activity (Pi produced), manual assay” value in assay [4] (varying concentrations, Figure 2A) is reported as “unable to replicate the inhibitory effect of Cisplatin outside of the 384-well format”. Also, the “% Inhibition of Hsp104 ATP hydrolysis” value in assay [1] (setting [5]) is listed as 76.58±1.06%. For the same molecule, in assay [1] (titration 40-0.49 µM, 60 min, Triton X-100 and BSA, heat map Figure 1A), the “Inhibition of Hsp104 ATPase activity in the presence of both Triton X-100 and BSA” value was “most significantly inhibit Hsp104 ATPase activity”.

The values are drawn from publication PMC4192545, “Suramin Inhibits Hsp104 ATPase and Disaggregase Activity” (PLoS ONE, 2014).
